Like-named read-outs stand apart in the source and are kept apart here.
Columns and labels:
[1] = test system: T. brucei rhodesiense; conditions: in vitro growth inhibition; cited from earlier work
[2] = molecular target: T1, TbPTR1 (Trypanosoma brucei brucei, UniProt O76290); assay: Spectrophotometric inhibition assay with recombinant TbPTR1; type: biochemical; conditions: for inhibition at 100 µM: read-out: TbPTR1 Inhibition at 100 µM (%); for EC50: EC50 reported because complete inhibition not reached (solubility issues), read-out: TbPTR1 EC50 (footnote a in IC50 column)
T1 sequence (O76290 1-268): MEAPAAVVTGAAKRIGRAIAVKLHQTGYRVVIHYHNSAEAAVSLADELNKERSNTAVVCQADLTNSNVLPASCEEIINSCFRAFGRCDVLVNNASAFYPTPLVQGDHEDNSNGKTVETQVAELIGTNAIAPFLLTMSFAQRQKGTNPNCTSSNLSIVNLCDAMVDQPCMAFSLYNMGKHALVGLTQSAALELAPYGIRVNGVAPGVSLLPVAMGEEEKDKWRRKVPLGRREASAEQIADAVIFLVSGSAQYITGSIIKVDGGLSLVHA
Description: The concentration and the activity of TbPTR1, as well as the saturating conditions of its substrate and co-substrate were determined by monitoring the oxidation of the co-substrate NADPH to NADP^+ via UV/Vis spectroscopy (Hitachi U-2900, Tokyo, Japan). […] The experiments were carried out as triplicates using buffer A (50 mM Tris/HCl (pH 7.6), 250 mM NaCl).
(§1) The concentration of TbPTR1 was 3.23 mg/mL. Its specific activity was calculated to be 0.03 U/mg. All experiments were carried out using the saturating concentrations of folic acid (8 µM) and NADPH (150 µM). The diagrams for the determination of the saturating conditions are depicted in the Supplementary Materials Figure S15.
(§2) All measurements were carried out as duplicates and compared with a reference containing no inhibitor. The reference measurements were used to determine the full catalytic activity of the respective enzyme (100%), and the relative catalytic activity of all following measurements including inhibitors was calculated accordingly.
(§3) The compounds that were able to inhibit the activity of TbPTR1 or TbDHFR ≥ 50% in the single concentration assays were further investigated by the determination of their half maximal inhibitory concentration (IC50), including at least five inhibitor concentrations. If a complete inhibition of the enzyme could not be achieved experimentally due to the given assay conditions, the half maximal effective concentration (EC50) was determined instead. All measurements were carried out as triplicates against a reference containing no inhibitor at saturating conditions (Section 4.8.). The documented enzyme activity was analysed by nonlinear regression using GraphPad Prism 8 (GraphPad Software Inc., La Jolla, CA, USA).

[3] = molecular target: TbDHFR (Trypanosoma brucei brucei, UniProt Q27783); assay: Spectrophotometric inhibition assay with recombinant TbDHFR; type: biochemical; conditions: for inhibition at 50 µM / TbDHFR Inhibition at 50 µM (%): NADPH 150 µM, DHF 50 µM
Chain of TbDHFR (Q27783 28-238 limits assumed): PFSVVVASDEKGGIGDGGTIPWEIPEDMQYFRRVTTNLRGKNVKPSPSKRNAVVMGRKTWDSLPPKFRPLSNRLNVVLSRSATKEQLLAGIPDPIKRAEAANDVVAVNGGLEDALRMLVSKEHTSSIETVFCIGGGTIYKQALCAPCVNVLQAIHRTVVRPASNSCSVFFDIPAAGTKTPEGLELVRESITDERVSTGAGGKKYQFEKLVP
Description: Kinetic analysis of TbDHFR was performed according to 4.5. All measurements were carried out as triplicates using buffer B (50 mM Tris/HCl (pH 7.6), 250 mM NaCl, 10 mM BME).
as §1, with “TbDHFR” for “TbPTR1”, “0.04 mg/mL with a” for “3.23 mg/mL. Its”, “of 38.1” for “was calculated to be 0.03”, “dihydrofolate (DHF, 50” for “folic acid (8”, “S16.” for “S15.”
as §2, §3

[4] = test system: T. brucei; set-up: method as in PMID 22331812; conditions: acute mouse model; cited from earlier work
[5] = 100 µM compound, NADPH 150 µM, folic acid 8 µM
[6] = 50 µM compound, read-out: TbDHFR Inhibition at 50 µM (%)

inhibition at 100 µM [2, 5] [%] | inhibition at 50 µM [3, 6] [%] | SMILES | IC50 [1] [µM] | also measured
63.9 | 15.2 | C=C1C(=O)O[C@@H]2/C=C(\CO)CC/C=C(\C)C[C@H](OC(=O)C(=C)[C@H](O)CO)[C@@H]12 [Compound 1, cnicin] | 0.4 | EC50 [2]: 21.2 µM
58.1 |  | C=C1C(=O)OC2C=C(C)C(OC(C)=O)CC=C(C)CC(OC(=O)C(=CCO)CO)C12 (stereo not shown) [Compound 5, (Z)-eucannabinolide] | 1.7 | EC50 [2]: 31.5 µM; TbDHFR Inhibition at 50 µM (%) ([3]; 50 µM compound): No TbDHFR inhibition could be detected and n.i.
33.1 |  | C=C1C(=O)OC2C=C(C)C(OC(=O)C(O)C(C)C)CC=C(C)CC(OC(=O)C(=CCO)CO)C12 (stereo not shown) [Compound 6] | 0.8 | TbDHFR Inhibition at 50 µM (%) ([3]; 50 µM compound): n.i.
28.5 | 95.9 | C=C1C(=O)OC2C=C(C)C(O)CC=C(C)CC(OC(=O)C(=CCOC(=O)C(O)C(C)C)CO)C12 (stereo not shown) [Compound 9] | 2.6 | 
26.7 | 20.1 | C=C1C(=O)OC2C=C(C)C(O)CC=C(C)CC(OC(=O)C(=CCOC(=O)C(O)C(C)CC)CO)C12 (stereo not shown) [Compound 10] | 4 | 

Continued, compound first:

SMILES | inhibition at 100 µM [2, 5] [%] | inhibition at 50 µM [3, 6] [%] | IC50 [1] [µM] | also measured
C=C(CO)C(=O)O[C@H]1CC(=C)[C@@H]2C[C@H](O)C(=C)[C@@H]2[C@H]2OC(=O)C(=C)[C@@H]21 [Compound 2, cynaropicrin] |  |  | 0.3 | IC50 [2]: 12.4 µM; inhibition at 100 µM [2]: 92.1%; in vivo activity against the parasite [4]: in vivo activity against the parasite; IC50 [3]: 7.1 µM
C=C1C(=O)OC2C1CC(OC(=O)C(C)C(C)O)C(C)=CCCC1(C)OC21 (stereo not shown) [Compound 3] | 73.1 | > 50 | 1.3 | IC50 ([2]; saturating conditions, nonlinear regression, read-out: TbPTR1 IC50): 40.5 µM; IC50 ([3]; saturating conditions, nonlinear regression, read-out: TbDHFR IC50): 13.3 µM
C=C1C(=O)O[C@@H]2/C=C(/CO)C3=CC(=O)[C@@](C)(C[C@@H](OC(=O)/C(C)=C\C)[C@@H]12)O3 [Compound 4] | 79.9 | 34.9 | 0.1 | IC50 [2]: 30.5 µM
C=C1C(=O)O[C@@H]2/C=C(\C)C[C@H](O)/C=C(\C)C[C@@H](OC(=O)/C(=C\C)COC(C)=O)[C@@H]12 [Compound 7] |  |  | 1.6 | inhibition at 100 µM [2]: 25.6%; inhibition at 50 µM ([3]; read-out: TbDHFR Inhibition at 50 µM (%), 50 µM compound): 48.7%
C=C1C(=O)O[C@H]2[C@H]1[C@H](OC(=O)/C(=C/COC(=O)C(O)C(C)C)CO)C[C@]1(C)[C@@H]2[C@H](C)C(=O)C[C@H]1O (stereo partly shown) [Compound 8] | 14.2 | 40.7 | 2.7 | 

Source: publication PMC8747069, “Sesquiterpene Lactones with Dual Inhibitory Activity against the Trypanosoma brucei Pteridine Reductase 1 and Dihydrofolate Reductase” (Molecules, 2021)
